Source: paper PMC12040169 (PLOS Biology, 2025)

Test: in vitro
Conditions: human, hela cells, % viability

SMILES	viability at 28.5 h, 10 µM [%]
CN(Cc1ccsc1)C(=O)c1cccc(S(=O)(=O)NC(C)(C)C)c1 [CBK305425]	81.2
COc1cccc(C(=O)NCCC(=O)N2CCC3(CC2)CNC(=O)O3)c1 [CBK306803]	88.2
CC(C)CN1CCCN(S(=O)(=O)c2ccc(C(F)(F)F)cc2Cl)CC1 [CBK062943]	86.5
c1ccc(-c2cnc3c(N4CCCC4)nc(-c4cccnc4)cn23)cc1 [CBK092245]	86.7
CS(=O)(=O)Nc1cc(-c2noc([C@@H]3CCCN3C3CCOCC3)n2)ccn1 [CBK288887]	81.8
Cc1cccc(-c2n[nH]/c(=N/C(=O)c3ccccc3F)s2)c1 [CBK287957]	84.5
Cc1c(C(=O)NC2CCN(c3ncccc3C#N)CC2)ccn1C [CBK307681]	103
O=S(=O)(Nc1cc(C(F)(F)F)ccc1N1CCOCC1)c1ccc(-c2ccccn2)s1 [CBK062557]	79.5
O=C(O)CCC(=O)N1N=C2C(=Cc3cccc([N+](=O)[O-])c3)CCCC2C1c1cccc([N+](=O)[O-])c1 (stereo not drawn) [CBK296071]	122
CC(CCc1ccccc1)NC(=O)CN1CCOCC1 (stereo not drawn) [CBK268994]	93
CCOC(=O)c1cccnc1-c1cccc(C(N)=O)c1 [CBK149239]	96
NS(=O)(=O)c1cc(C(=O)O)ccc1Cl [CBK113676]	108
COc1cccc(/C=N/N2C(=O)c3ccc([N+](=O)[O-])cc3NC2c2cccc(OC)c2O)c1O (stereo not drawn) [CBK074439]	91.3
O=C(NC1CCN(C(=O)Cn2ccc3ccncc32)CC1)C1CC1 [CBK284731]	98.9
N#Cc1ccc(NC(=O)CC2(CC(=O)O)CCCC2)cc1 [CBK286979]	89.5
Oc1ccc(-n2ncc(-c3ccc(Cl)cc3)n2)cc1 [CBK112794]	86.8
c1ccc(Nc2c(-c3ccccc3)nc3[nH]cnn23)cc1 [CBK287284]	89.4
Cn1cc(CN2CCCC(c3cccc(Cc4ccc(Cl)cc4)n3)C2)cn1 (stereo not drawn) [CBK286242]	81.8
Cc1nnc(Sc2nc(CN3CCOCC3)nc3scc(-c4cccs4)c23)n1C [CBK297092]	103
CN1C(=O)CC(Sc2ccccc2C(=O)O)C1=O (stereo not drawn) [CBK287213]	89.5
Fc1ccccc1CCOc1cncc(Cl)n1 [CBK176038]	86
O=C(NCC1(c2ccccc2)CCC1)C1CCCN(C(=O)c2ccoc2)C1 (stereo not drawn) [CBK296670]	85.6
CCOC(=O)C(CNC(=O)c1cnc(C)c(Br)c1Cl)Cc1ccccc1 (stereo not drawn) [CBK305247]	99.6

SMILES	viability at 28.5 h, 10 µM [%]
CCSc1ccc(-c2cn3ccnc3c(N3CCN(CCN(C)C)CC3)n2)cc1 [CBK066662]	92.8
Cc1nc(C)n(C(C)CNC(=O)Cn2ccc3ccc(F)cc32)n1 (stereo not drawn) [CBK282612]	95.5
CC(C)(CN1CCCC1)CN1CCC(O)(c2ccccc2F)CC1 [CBK282798]	93.4
COc1ccc(-c2cnc(N)c(-c3ccc(C=O)cc3)n2)cn1 [CBK064096]	90.8
C(=N\N1CCOCC1)/c1cccs1 [CBK027942]	96.9
Cc1cc(/C=C2/C(=N)N3N=C(Cc4ccccc4)SC3=NC2=O)c(C)n1-c1ccccc1 [CBK264318]	100
CC(c1ccc(Cl)cc1Cl)N(C)C(=O)c1ccc(S(C)(=O)=O)cc1 (stereo not drawn) [CBK242418]	113
COc1ccccc1Cn1nc2nnc(-c3ccc(F)cc3)c(-c3ccc(F)cc3)n2c1=O [CBK286184]	97.7
CC(O)c1nc2ccc(Cl)cc2[nH]1 (stereo not drawn) [CBK115573]	102
O=C(O)c1ccc(OCCN2C3=NCCN3c3ccccc32)cc1 [CBK286629]	93
Cc1cc2nnn(C[C@@H](C)NC(=O)c3ccco3)c2cc1C [CBK282366]	100
COc1ccc(Cn2c(=O)n(C(=O)c3cccc(S(C)(=O)=O)c3)c3ccccc32)cc1 [CBK106547]	86.5
N[C@H](CCc1nc2ccccc2[nH]1)C(=O)O [CBK172614]	98.2
NC(=O)CC1Nc2cccc3cccc(c23)NC1=O (stereo not drawn) [CBK267560]	75
c1cncc(-c2cn3ccnc3c(NCC3CC3)n2)c1 [CBK036609]	84
Cc1ccc2c(c1)cc(C)c1nn(CC(=O)N3CCCCC3)c(=O)n12 [CBK283870]	81.6
Cc1ccccc1C(NC(=O)C1CCN(C(=O)CCC2CCCC2)CC1)c1ccccn1 (stereo not drawn) [CBK059677]	90.5
Cn1ccnc1C1(O)CC2CCC(C1)N2C(=O)c1ccccc1Cl (stereo not drawn) [CBK284090]	99
COc1cncc(-c2cncc(Nc3cc(OC)c(OC)c(OC)c3)n2)c1 [CBK065397]	95.1
O=C1OC(c2ccco2)=N/C1=C/c1ccccc1OC(=O)c1ccco1 [CBK263980]	103
N#CCCCN1CCC(Oc2nccnc2OCc2ccc(F)cc2)CC1 [CBK153643]	115
O=C(O)c1cccc(Nc2nc3ccccc3nc2NS(=O)(=O)c2ccc(Br)cc2)c1 [CBK296113]	111
